According to patent publication US20260103474A1, “NOVEL COMPOUNDS FOR THE DIAGNOSIS OF TDP-43 PROTEINOPATHIES” (AC IMMUNE SA, priority 2022, published 2026):
Where two headings read alike, the source gives them in different places.

Key:
TDP-43 aggregates = TDP-43 aggregates (Homo sapiens, UniProt Q13148); assay: Classical autoradiography in brain sections from patients with FTD; assay type: binding; conditions: for Displacement on FTLD-TDP type A and B compared to non-demented control / Specific binding in FTLD-TDP type A compared to control: classical autoradiography; for cARG displacement on FTLD-TDP Type A case / cARG displacement on FTLD-TDP Type B case / cARG displacement on non-demented control: total binding divided by non-specific binding, grey matter, self-block with cold compound; for Specific binding in FTLD-TDP type A compared to control: one-way ANOVA with Tukey's correction
Procedure: All tissues were collected from donors for or from whom a written informed consent for a brain autopsy and the use of the material and clinical information for research purposes had been obtained by the respective brain banks. All samples were anonymized and coded. Frozen brain tissue blocks with confirmed TDP-43 pathology upon autopsy were processed using a cryotome to generate sections of 10 μm in thickness and mounted on glass slides. Sections were kept at −80° C. until use.
Brain sections were fixed for 15 minutes at 4° C. with 4% formaldehyde on ice and washed three times for eight minutes with 1×PBS at RT. Sections were blocked in assay buffer for 30 minutes (50 mM Tris-HCl, 0.9% NaCl+0.1% BSA). Cold test compound (Compound 1, Compound 8 or Compound 17) was diluted in assay buffer to 4 μM and applied on half of the sections for 40 minutes at RT to determine non-specific binding. The remaining half of the sections were only incubated with assay buffer (total binding). Following this incubation, an equal volume of the corresponding tritiated compound (i.e. [^3H]-Compound 1, [^3H]-Compound 8 or [^3H]-Compound 17, respectively), diluted to 20 nM (for [^3H]-Compound 1 and [^3H]-Compound 8) or 10 nM ([^3H]-Compound 17) or increasing concentration from 0.1 to 200 nM (for [^3H]-Compound 1 and [^3H]-Compound 17), was added on sections and incubated for 2 hours at RT and then washed as follows: once in ice-cold 50 mM Tris-HCl pH 7.4 buffer for one minute, twice in ice-cold PBS for one minute, once in ice-cold 50 mM Tris-HCl pH 7.4 buffer for one minute and finally rinsed briefly in ice-cold distilled water.
Sections were subsequently dried under a stream of air and mounted with a copper-based adhesive strip. Bound radioactivity was quantified by exposing the slides in a real-time autoradiography system (Beaquant™ AI4R) for 2 hours, with measurement settings configured for tritium. Beavacq software (AI4R) was used to acquire the image which was subsequently quantified using Beamage image analysis software (AI4R). Specific binding (non-specific binding subtracted from total) and displacement (total binding divided by non-specific) were calculated. Bar graphs were generated using GraphPad Prism. For Kd determination on brain sections, the specific binding data were fitted with a non-linear regression analysis using a one-site specific binding model in GraphPad Prism.

Abeta = target: T1, Abeta (Homo sapiens, UniProt P05067); assay: Radiobinding competition assay using Abeta reference compound on AD insoluble fraction of brain homogenates; assay type: binding; conditions: against [3H]Abeta reference compound
T1 construct: an AD donor with confirmed burden of Tau and Abeta aggregates; from tissue; host or cells: frontal cortex of a human AD donor, Triton/sucrose-insoluble fraction
Procedure: (§1) Approximately 4 g of frozen tissue block from frontal cortex brain region was used from an AD donor with confirmed burden of Tau and Abeta aggregates. The tissue was homogenized in three volumes (1:3 w/v) of high salt buffer (50 mM Tris-HCl pH 7.5, 750 mM NaCl, 5 mM EDTA) supplemented with protease inhibitors (Complete; Roche 11697498001) at 4° C. with a glass Dounce homogenizer. The homogenate was transferred into polycarbonate centrifuge bottles (16×76 mm; Beckman 355603) and centrifuged at 100,000×g (38,000 RPM) in an ultracentrifuge (Beckman, XL100K) for 60 minutes at 4° C. using a pre-cooled 70.1 rotor (Beckman, 342184). Pellets were resuspended in high salt buffer supplemented with 1% Triton X-100 and homogenized at 4° C. with a syringe. The homogenates were centrifuged again at 100,000×g (38,000 RPM, 70.1 rotor) for 60 minutes at 4° C. Pellets were resuspended in high salt buffer supplemented with 1% Triton X-100 and 1 M sucrose and homogenized at 4° C. with a syringe. The homogenates were centrifuged at 100,000×g (38,000 RPM, 70.1 rotor) for 60 minutes at 4° C. The resulting pellets containing insoluble fraction were resuspended in PBS (1:2 w/v relative to starting tissue weight), aliquoted and stored at −80° C. until use.
The reaction was performed in assay buffer (50 mM Tris pH 7.5 in 0.9% NaCl, 0.1% BSA) and incubated for two hours at room temperature (RT). Samples in duplicate were then filtered under vacuum in GF/C filter plates (PerkinElmer) to trap the aggregates with the bound radioligand and washed with 100 μL ice-cold 50 mM Tris pH 7.5. The GF/C filters were then dried and scintillation liquid (UltimateGold, PerkinElmer, 6013151) was added in each well. The filters were analyzed on a Microbeta2 scintillation counter (PerkinElmer). Values for the maximal signal were obtained in the absence of non-radiolabeled compound, while 100% displacement was obtained using 1 μM of non-radiolabeled reference compound. Ki values were calculated by nonlinear regression, using a one site—fit Ki model in Prism V7 (GraphPad).

[1] = test system: AD brain homogenates (containing Abeta and Tau); assay: Radiobinding assay (direct binding, Kd) on AD insoluble fraction of brain homogenates; set-up: species or system human; conditions: saturation binding of tritiated compound
Procedure: as §1, with “The homogenates were centrifuged at 100,000×g (38,000 RPM, 70.1 rotor) for 60 minutes at 4° C. The resulting pellets containing insoluble fraction were resuspended in PBS (1:2 w/v relative to starting tissue weight), aliquoted and stored at −80° C. until use.” left out
The AD insoluble fraction was incubated with [^3H]Compound 1, [^3H]Compound 17 or [^3H]Abeta reference compound ([^3H]Abeta ref) at different concentrations. […] The filters were analyzed on a Microbeta scintillation counter (PerkinElmer). Specific binding was calculated by subtracting the non-specific signal from the total signal. […]

[2] = cells printed in μM, read-out: Ki on AD brain homogenates

Chain of TDP-43 aggregates (Q13148 whole entry): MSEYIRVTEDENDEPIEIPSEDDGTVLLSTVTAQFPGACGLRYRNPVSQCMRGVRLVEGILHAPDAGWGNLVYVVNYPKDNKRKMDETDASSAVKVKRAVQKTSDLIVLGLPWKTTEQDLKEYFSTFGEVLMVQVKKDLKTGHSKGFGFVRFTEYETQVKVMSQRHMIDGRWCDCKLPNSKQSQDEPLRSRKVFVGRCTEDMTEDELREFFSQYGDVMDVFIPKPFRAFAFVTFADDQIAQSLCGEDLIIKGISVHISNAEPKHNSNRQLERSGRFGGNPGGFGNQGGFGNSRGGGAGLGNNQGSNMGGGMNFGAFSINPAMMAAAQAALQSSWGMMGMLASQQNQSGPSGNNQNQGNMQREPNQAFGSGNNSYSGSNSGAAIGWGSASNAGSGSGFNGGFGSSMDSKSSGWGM
T1 sequence (P05067 672-713 limits assumed): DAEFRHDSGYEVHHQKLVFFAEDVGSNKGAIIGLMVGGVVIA

| SMILES | Displacement on FTLD-TDP type A and B compared to non-demented control (TDP-43 aggregates) | cARG displacement on FTLD-TDP Type A case (TDP-43 aggregates) | cARG displacement on FTLD-TDP Type B case (TDP-43 aggregates) | cARG displacement on non-demented control (TDP-43 aggregates) | Ki (Abeta; [2]) [µM] | Ki (Abeta; read-out: Ki (nM) on AD brain homogenates) [µM] | Specific binding in FTLD-TDP type A compared to control (TDP-43 aggregates) | Direct binding in AD brain homogenates (containing Abeta and Tau) [1] |
| --- | --- | --- | --- | --- | --- | --- | --- | --- |
| O=C1c2sc(-c3ccc(N4CC[C@@H](F)C4)nc3F)nc2CCN1c1cccnc1 [Compound 1, 2-[2-fluoro-6-[(3R)-3-fluoropyrrolidin-1-yl]-3-pyridyl]-5-(3-pyridyl)-6,7-dihydrothiazolo[5,4-c]pyridin-4-one] | increased displacement | 3.3 | 3.2 | 1.9 | > 1 | > 1 |  |  |
| O=C1c2sc(-c3ccc(N4CCC(CO)CC4)nc3F)nc2CCN1c1cccnc1 [Compound 17, 2-(2-fluoro-6-(4-(hydroxymethyl)piperidin-1-yl)pyridin-3-yl)-5-(pyridin-3-yl)-6,7-dihydrothiazolo[5,4-c]pyridin-4(5H)-one] | increased displacement | 2.9 | 2.6 | 1.7 | > 1 |  |  |  |
| [3H]c1cncc(N2CCc3nc(-c4cc([3H])c(N5CC[C@@H](F)C5)nc4F)sc3C2=O)c1 [[^3H]-Compound 1, tritiated 2-[2-fluoro-6-[(3R)-3-fluoropyrrolidin-1-yl]-3-pyridyl]-5-(3-pyridyl)-6,7-dihydrothiazolo[5,4-c]pyridin-4-one] |  |  |  |  |  |  | significantly higher specific binding | No significant binding |
| [3H]C([3H])(O)C1CCN(c2ccc(-c3nc4c(s3)C(=O)N(c3cccnc3)CC4)c(F)n2)CC1 [[^3H]-Compound 17, 2-(2-fluoro-6-(4-(hydroxymethyl-t2)piperidin-1-yl)pyridin-3-yl)-5-(pyridin-3-yl)-6,7-dihydrothiazolo[5,4-c]pyridin-4(5H)-one] |  |  |  |  |  |  | significantly higher specific binding | No significant binding |
